From patent US20240208992A1, “MACROCYCLES AS CFTR MODULATORS” (Idorsia Pharmaceuticals Ltd, priority 2021, published 2024) come the findings set out here.

pEC50: −log10 of the molar value.

The target of this test is human F508del-CFTR (Homo sapiens, UniProt P13569, DEL508-508). The experiment in a line: F508del-CFTR cell surface expression (corrector activity), DiscoveRx ß-galactosidase complementation chemiluminescence assay in recombinant U2OS cell line.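 As to all read-outs here: U2OS cells co-expressing ProLink-tagged F508del-CFTR and a membrane-anchored enzyme acceptor, where more surface CFTR restores β-galactosidase activity measured by chemiluminescence.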 The following applies: U2OS cells, 16h compound incubation; for pEC50: EC50, F508del-CFTR cell surface expression, geomean of several measurements; for Emax: U2OS, in relation to the Emax of the corrector lumacaftor (=100%), arithmetic mean.
Chain of human F508del-CFTR (P13569 with tags, fused parts or gaps DEL508-508): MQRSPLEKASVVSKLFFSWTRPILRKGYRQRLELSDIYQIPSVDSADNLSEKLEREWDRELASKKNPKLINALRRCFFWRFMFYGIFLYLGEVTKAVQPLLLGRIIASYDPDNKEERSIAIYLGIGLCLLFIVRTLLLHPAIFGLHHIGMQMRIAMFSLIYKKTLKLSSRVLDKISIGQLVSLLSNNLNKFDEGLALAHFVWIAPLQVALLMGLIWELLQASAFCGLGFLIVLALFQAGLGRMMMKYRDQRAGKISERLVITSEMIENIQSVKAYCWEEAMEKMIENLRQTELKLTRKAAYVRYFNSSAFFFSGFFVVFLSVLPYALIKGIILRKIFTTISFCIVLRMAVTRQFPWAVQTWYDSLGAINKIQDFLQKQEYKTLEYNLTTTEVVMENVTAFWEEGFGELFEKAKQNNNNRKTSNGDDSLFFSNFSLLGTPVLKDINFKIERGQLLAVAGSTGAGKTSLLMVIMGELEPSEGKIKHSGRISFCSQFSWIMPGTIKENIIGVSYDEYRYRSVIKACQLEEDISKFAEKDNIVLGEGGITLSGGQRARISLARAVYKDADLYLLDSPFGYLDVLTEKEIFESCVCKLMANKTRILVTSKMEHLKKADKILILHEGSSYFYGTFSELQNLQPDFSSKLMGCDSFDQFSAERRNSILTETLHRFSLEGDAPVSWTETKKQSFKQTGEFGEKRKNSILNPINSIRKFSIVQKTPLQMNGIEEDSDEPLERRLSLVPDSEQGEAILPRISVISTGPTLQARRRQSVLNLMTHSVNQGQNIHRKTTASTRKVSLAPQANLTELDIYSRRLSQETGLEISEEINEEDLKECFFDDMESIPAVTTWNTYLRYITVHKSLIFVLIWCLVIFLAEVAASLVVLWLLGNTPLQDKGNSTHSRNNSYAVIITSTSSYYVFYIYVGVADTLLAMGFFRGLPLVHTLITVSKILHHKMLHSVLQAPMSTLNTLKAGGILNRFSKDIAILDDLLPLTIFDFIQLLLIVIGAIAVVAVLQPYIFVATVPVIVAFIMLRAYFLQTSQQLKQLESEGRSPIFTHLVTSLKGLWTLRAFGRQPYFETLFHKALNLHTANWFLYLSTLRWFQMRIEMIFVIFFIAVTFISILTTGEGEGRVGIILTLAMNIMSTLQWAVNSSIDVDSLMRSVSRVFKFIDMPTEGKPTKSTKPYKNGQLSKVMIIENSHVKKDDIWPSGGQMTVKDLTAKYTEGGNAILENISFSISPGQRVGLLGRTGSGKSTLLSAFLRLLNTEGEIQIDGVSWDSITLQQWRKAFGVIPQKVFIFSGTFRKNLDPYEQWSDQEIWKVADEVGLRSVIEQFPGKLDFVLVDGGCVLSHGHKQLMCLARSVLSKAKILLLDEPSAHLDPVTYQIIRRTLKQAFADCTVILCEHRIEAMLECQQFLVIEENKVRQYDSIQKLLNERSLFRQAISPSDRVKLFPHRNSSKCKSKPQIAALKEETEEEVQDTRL

As to `COCCc1ccc(-c2noc(C[C@@H]3C(=O)N[C@H](Cc4ccccc4)COc4ccnc(OC)c4C(=O)N[C@H](C(=O)NCCc4noc(C5CC5)n4)CC(=O)N(C)[C@@H](CC(C)C)C(=O)N3C)n2)cc1` [Example 867, (3R,6R,9S,13S)-3-benzyl-N-(2-(5-cyclopropyl-1,2,4-oxadiazol-3-yl)ethyl)-9-isobutyl-16-methoxy-6-((3-(4-(2-methoxyethyl)phenyl)-1,2,4-oxadiazol-5-yl)methyl)-7,10-dimethyl-5,8,11,15-tetraoxo-2,3,4,5,6,7,8,9,10,11,12,13,14,15-tetradecahydropyrido[3,4-p][1]oxa[4,7,10,14]tetraazacycloheptadecine-13-carboxamide], the pEC50 (in general, −log10 of the EC50, conventionally taken in molar units) was 7.51 and the Emax (as a rule, the size of the effect at its maximum, as opposed to the concentration needed) amounted to 413%.
The like results for `COCCc1ccc(-c2noc(C[C@@H]3C(=O)N[C@H](Cc4ccccc4)COc4ccnc(OC)c4C(=O)N[C@H](C(=O)NCCc4cc(OC)no4)CC(=O)N(C)[C@@H](CC(C)C)C(=O)N3C)n2)cc1` [Example 868, (3R,6R,9S,13S)-3-benzyl-9-isobutyl-16-methoxy-6-((3-(4-(2-methoxyethyl)phenyl)-1,2,4-oxadiazol-5-yl)methyl)-N-(2-(3-methoxyisoxazol-5-yl)ethyl)-7,10-dimethyl-5,8,11,15-tetraoxo-2,3,4,5,6,7,8,9,10,11,12,13,14,15-tetradecahydropyrido[3,4-p][1]oxa[4,7,10,14]tetraazacycloheptadecine-13-carboxamide] were, in that order, 7.74 and 397%.
For the compound `COc1cc2c(c(OC)n1)C(=O)N[C@H](C(=O)NCCc1cc(C)no1)CC(=O)N(C)[C@@H](CC(C)C)C(=O)N1CCCC[C@@H]1C(=O)N[C@H](Cc1ccccc1)CO2` [Example 869, (7S,11S,17aR,20R)-20-benzyl-11-isobutyl-2,4-dimethoxy-10-methyl-N-(2-(3-methylisoxazol-5-yl)ethyl)-5,9,12,18-tetraoxo-5,6,7,8,9,10,11,12,15,16,17,17a,18,19,20,21-hexadecahydro-14H-dipyrido[2,1-f:3′,4′-p][1]oxa[4,7,10,14]tetraazacycloheptadecine-7-carboxamide], the pEC50 was 6.45 and the Emax amounted to 305%.
The like results for `COc1cc2c(c(OC)n1)C(=O)N[C@H](C(=O)NCCc1cc(C3CC3)no1)CC(=O)N(C)[C@@H](CC(C)C)C(=O)N1CCCC[C@@H]1C(=O)N[C@H](Cc1ccccc1)CO2` [Example 870, (7S,11S,17aR,20R)-20-benzyl-N-(2-(3-cyclopropylisoxazol-5-yl)ethyl)-11-isobutyl-2,4-dimethoxy-10-methyl-5,9,12,18-tetraoxo-5,6,7,8,9,10,11,12,15,16,17,17a,18,19,20,21-hexadecahydro-14H-dipyrido[2,1-f:3′,4′-p][1]oxa[4,7,10,14]tetraazacycloheptadecine-7-carboxamide] were, in that order, 6.70 and 316%.
The like results for `COCCc1ccc(-c2noc(C[C@@H]3C(=O)N[C@H](Cc4ccccc4)COc4ccnc(OC)c4C(=O)N[C@H](C(=O)NCCn4ncc(C5CC5)n4)CC(=O)N(C)[C@@H](CC(C)C)C(=O)N3C)n2)cc1` [Example 871, (3R,6R,9S,13S)-3-benzyl-N-(2-(4-cyclopropyl-2H-1,2,3-triazol-2-yl)ethyl)-9-isobutyl-16-methoxy-6-((3-(4-(2-methoxyethyl)phenyl)-1,2,4-oxadiazol-5-yl)methyl)-7,10-dimethyl-5,8,11,15-tetraoxo-2,3,4,5,6,7,8,9,10,11,12,13,14,15-tetradecahydropyrido[3,4-p][1]oxa[4,7,10,14]tetraazacycloheptadecine-13-carboxamide] were, in that order, 7.49 and 378%.
For `COc1noc(CCNC(=O)[C@@H]2CC(=O)N(C)[C@@H](CC(C)C)C(=O)N(C)C3(CC3)C(=O)N[C@H](Cc3ccccc3)COc3cnc4ccccc4c3C(=O)N2)n1` [Example 872, (3′S,7′S,13′R)-13′-benzyl-7′-isobutyl-N-(2-(3-methoxy-1,2,4-oxadiazol-5-yl)ethyl)-6′,9′-dimethyl-1′,5′,8′,11′-tetraoxo-2′,3′,4′,5′,6′,7′,8′,9′,11′,12′,13′,14′-dodecahydro-1′H-spiro[cyclopropane-1,10′-[1]oxa[4,7,10,14]tetraazacycloheptadecino[17,16-c]quinoline]-3′-carboxamide], the pEC50 was 6.27 and the Emax came to 318%.
The like results for `COc1cccc(CCNC(=O)[C@@H]2CC(=O)N(C)[C@@H](CC(C)C)C(=O)N(C)[C@H](CC(C)(C)C)C(=O)N[C@H](Cc3ccccc3)COc3cc(C)nc(OC)c3C(=O)N2)c1` [Example 873, (3R,6R,9S,13S)-3-benzyl-9-isobutyl-16-methoxy-N-(3-methoxyphenethyl)-7,10,18-trimethyl-6-neopentyl-5,8,11,15-tetraoxo-2,3,4,5,6,7,8,9,10,11,12,13,14,15-tetradecahydropyrido[3,4-p][1]oxa[4,7,10,14]tetraazacycloheptadecine-13-carboxamide] were, in that order, 7.39 and 336%.
For `COc1nc(C)cc2c1C(=O)N[C@H](C(=O)NCCc1cc(C)no1)CC(=O)N(C)[C@@H](CC(C)C)C(=O)N(C)[C@H](CCc1ccccc1)C(=O)N[C@H](Cc1ccccc1)CO2` [Example 874, (3R,6R,9S,13S)-3-benzyl-9-isobutyl-16-methoxy-7,10,18-trimethyl-N-(2-(3-methylisoxazol-5-yl)ethyl)-5,8,11,15-tetraoxo-6-phenethyl-2,3,4,5,6,7,8,9,10,11,12,13,14,15-tetradecahydropyrido[3,4-p][1]oxa[4,7,10,14]tetraazacycloheptadecine-13-carboxamide], the pEC50 is 7.18 and the Emax worked out at 332%.
The like results for `COc1cccc(CCNC(=O)[C@@H]2CC(=O)N(C)[C@@H](CC(C)C)C(=O)N(C)[C@H](CCc3ccccc3)C(=O)N[C@H](Cc3ccccc3)COc3cc(C)nc(OC)c3C(=O)N2)c1` [Example 875, (3R,6R,9S,13S)-3-benzyl-9-isobutyl-16-methoxy-N-(3-methoxyphenethyl)-7,10,18-trimethyl-5,8,11,15-tetraoxo-6-phenethyl-2,3,4,5,6,7,8,9,10,11,12,13,14,15-tetradecahydropyrido[3,4-p][1]oxa[4,7,10,14]tetraazacycloheptadecine-13-carboxamide] were, in that order, 7.68 and 333%.
The like results for `COc1nc(C)cc2c1C(=O)N[C@H](C(=O)NCCc1cc(C)no1)CC(=O)N(C)[C@@H](CC(C)C)C(=O)N(C)[C@H](CC(C)(C)C)C(=O)N[C@H](Cc1ccccc1)CO2` [Example 876, (3R,6R,9S,13S)-3-benzyl-9-isobutyl-16-methoxy-7,10,18-trimethyl-N-(2-(3-methylisoxazol-5-yl)ethyl)-6-neopentyl-5,8,11,15-tetraoxo-2,3,4,5,6,7,8,9,10,11,12,13,14,15-tetradecahydropyrido[3,4-p][1]oxa[4,7,10,14]tetraazacycloheptadecine-13-carboxamide] were, in that order, 6.95 and 317%.
As for `CCOCC[C@@H]1C(=O)N[C@H](Cc2ccccc2)COc2cc(C)nc(OC)c2C(=O)N[C@H](C(=O)NCCc2cc(OC)no2)CC(=O)N(C)[C@@H](CC(C)C)C(=O)N1C` [Example 877, (3R,6R,9S,13S)-3-benzyl-6-(2-ethoxyethyl)-9-isobutyl-16-methoxy-N-(2-(3-methoxyisoxazol-5-yl)ethyl)-7,10,18-trimethyl-5,8,11,15-tetraoxo-2,3,4,5,6,7,8,9,10,11,12,13,14,15-tetradecahydropyrido[3,4-p][1]oxa[4,7,10,14]tetraazacycloheptadecine-13-carboxamide], the pEC50 is 6.73 and the Emax amounted to 361%.
On to `COc1cc(CCNC(=O)[C@@H]2CC(=O)N(C)[C@@H](CC(C)C)C(=O)N(C)[C@H](CC(C)(C)C)C(=O)N[C@H](Cc3ccccc3)COc3cc(C)nc(OC)c3C(=O)N2)on1` [Example 878, (3R,6R,9S,13S)-3-benzyl-9-isobutyl-16-methoxy-N-(2-(3-methoxyisoxazol-5-yl)ethyl)-7,10,18-trimethyl-6-neopentyl-5,8,11,15-tetraoxo-2,3,4,5,6,7,8,9,10,11,12,13,14,15-tetradecahydropyrido[3,4-p][1]oxa[4,7,10,14]tetraazacycloheptadecine-13-carboxamide], for which the pEC50 was 7.57 and the Emax was determined as 336%.
`COc1cc(C[C@@H]2C(=O)N[C@H](Cc3ccccc3)COc3ccc4ncc(F)cc4c3C(=O)N[C@H](C(=O)NCCc3noc(C4CC4)n3)CC(=O)N(C)[C@@H](CC(C)C)C(=O)N2C)on1` [Example 879, (3S,7S,10R,13R)-13-benzyl-N-(2-(5-cyclopropyl-1,2,4-oxadiazol-3-yl)ethyl)-20-fluoro-7-isobutyl-10-((3-methoxyisoxazol-5-yl)methyl)-6,9-dimethyl-1,5,8,11-tetraoxo-1,2,3,4,5,6,7,8,9,10,11,12,13,14-tetradecahydro-[1]oxa[4,7,10,14]tetraazacycloheptadecino[16,17-f]quinoline-3-carboxamide]: the negative-log EC50 (pEC50) was 7.20 and the maximum response (Emax) was 360%.
The like results for `COc1cc(CCNC(=O)[C@@H]2CC(=O)N(C)[C@@H](CC(C)C)C(=O)N(C)[C@H](Cc3cc(OC)no3)C(=O)N[C@H](Cc3ccccc3)COc3ccc4ncc(F)cc4c3C(=O)N2)on1` [Example 880, (3S,7S,10R,13R)-13-benzyl-20-fluoro-7-isobutyl-N-(2-(3-methoxyisoxazol-5-yl)ethyl)-10-((3-methoxyisoxazol-5-yl)methyl)-6,9-dimethyl-1,5,8,11-tetraoxo-1,2,3,4,5,6,7,8,9,10,11,12,13,14-tetradecahydro-[1]oxa[4,7,10,14]tetraazacycloheptadecino[16,17-f]quinoline-3-carboxamide] were, in that order, 7.23 and 359%.
